pIC50: −log10 of the molar value.
system: AR 1.0 cells; assay: Drug accumulation assay: daunorubicin accumulation in AR 1.0 cells; format: cell-based; details: Mus musculus, 100% = accumulation with verapamil 100 μM, 1 hr, 37° C.
Protocol: The EMT6 mouse mammary carcinoma cell line and the MDR resistant subline AR 1.0 were cultured in RPMI 1640 medium containing 10% foetal calf serum and 2 mM glutamine at 37° C. in 5% CO2. Cells were passaged between 1 in 200 and 1 in 2000 in the case of the parental cell line and between 1 in 20 and 1 in 200 in the case of the MDR resistant subline, after trypsinisation (0.25% trypsin, 0.2 gl^-1, EDTA).
AR 1.0 cells were seeded 48 hours prior to assay into 96 well opaque culture plates (Canberra Packard).

| pIC50 | SMILES |
| --- | --- |
| 7.12 | COc1ccc(CN(C)CCc2ccc(NC(=O)c3cc(F)c(F)cc3NC(=O)c3cnc4ccccc4c3)cc2)cc1OC [compound 9667, Quinoline-3-carboxylic acid [2-(4-{2-[(3,4-dimethoxy-benzyl)-methyl-amino]-ethyl}-phenylcarbamoyl)-4,5-difiuoro-phenyl]-amide] |
| 5.72 | COc1cc2c(cc1OC)CN(CCOc1ccc(NC(=O)c3ccccc3NC(=O)c3cnc4ccccc4c3)cc1)CC2 [compound 9623, Quinoline-3-carboxylic acid (2-{4-[2-(6,7-dimethoxy-3,4-dihydro-1H-isoquinolin-2-yl)-ethoxy]-phenylcarbamoyl}-phenyl)-amide] |
| 5.86 | COc1cc(CCN2CCc3cc(OC)c(OC)cc3C2)ccc1NC(=O)c1ccccc1NC(=O)c1cnccn1 [compound 9659, Pyrazine-2-carboxylic acid (2-{4-[2-(6,7-dimethoxy-3,4-dihydro-1H-isoquinolin-2-yl)-ethyl]-2-methoxy-phenylcarbamoyl}-phenyl)-amide] |
| 5.64 | O=C(Nc1ccccc1C(=O)Nc1ccc(CCN2CCc3cc(Cl)c(Cl)cc3C2)cc1)c1cnc2ccccc2c1 [compound 9628, Quinoline-3-carboxylic acid (2-{4-[2-(6,7-dichloro-3,4-dihydro-1H-isoquinolin-2-yl)-ethyl]-phenylcarbamoyl}-phenyl)-amide] |
| 6.33 | COc1ccc(CN(CCc2ccc(NC(=O)c3ccccc3NC(=O)c3cnc4ccccc4c3)cc2)C(C)C)cc1OC [compound 9669, Quinoline-3-carboxylic acid [2-(4-{2-[(3,4-dimethoxy-benzyl)-isopropyl-amino]-ethyl}-phenylcarbamoyl)-phenyl]-amide] |
| 5.16 | O=C(Nc1ccccc1C(=O)Nc1ccc(CCN2CCc3ccc([N+](=O)[O-])cc3C2)cc1)c1cnc2ccccc2c1 [compound 9634, Quinoline-3-carboxylic acid (2-{4-[2-(7-nitro-3,4-dihydro-1H-isoquinolin-2-yl)-ethyl]-phenylcarbamoyl}-phenyl)-amide] |
| 6.31 | COc1cc2c(cc1OC)CN(CCc1cccc(NC(=O)c3ccccc3NC(=O)c3cnc(C)cn3)c1)CC2 [compound 9653, 5-Methyl-pyrazine-2-carboxylic acid (2-{3-[2-(6,7-dimethoxy-3,4-dihydro-1H-isoquinolin-2-yl)-ethyl]-phenylcarbamoyl}-phenyl)-amide] |
| 7.06 | COc1ccc(CN(C)CCc2ccc(NC(=O)c3ccc(C)cc3NC(=O)c3cnc4ccccc4c3)cc2)cc1OC [compound 9668] |
| < 5.00 | O=C(Nc1ccccc1C(=O)Nc1ccc(CCN2CCc3ccc(Cl)c(Cl)c3C2)cc1)c1cnc2ccccc2c1 [compound 9629, Quinoline-3-carboxylic acid (2-{4-[2-(7,8-dichloro-3,4-dihydro-1H-isoquinolin-2-yl)-ethyl]-phenylcarbamoyl}-phenyl)-amide] |

Further lines, the compound ahead of its results:

| SMILES | pIC50 |
| --- | --- |
| COc1cc2c(cc1OC)CN(CCc1ccc(NC(=O)c3ccccc3NC(=O)c3ccc(O)cc3)cc1)CC2 [compound 9559, 2-(4-Hydroxy-benzoylamino)-N-{4-[2-(6,7-dimethoxy-3,4-dihydro-1H-isoquinolin-2-yl)-ethyl]-phenyl}-benzamide] | 5.69 |
| COc1cc2c(cc1OC)CN(CCNC(=O)c1ccccc1NC(=O)c1cccnc1)CC2 [compound 9359, N-{2-[2-(6,7-Dimethoxy-3,4-dihydro-1H-isoquinolin-2-yl)-ethylcarbamoyl]-phenyl}-nicotinamide] | < 5.00 |
| COc1cc2c(cc1OC)CN(CCNC(=O)c1ccccc1NC(=O)c1cnccn1)CC2 [compound 9391, Pyrazine-2-carboxylic acid {2-[2-(6,7-dimethoxy-3,4-dihydro-1H-isoquinolin-2-yl)-ethylcarbamoyl]-phenyl}-amide] | < 5.00 |
| COc1cc2c(cc1OC)CN(CCc1ccc(NC(=O)c3c(C)cccc3NC(=O)c3ccccc3)cc1)CC2 [compound 9512, 2-Benzoylamino-N-{4-[2-(617-dimethoxy-3,4-dihydro-1H-isoquinolin-2-yl)-ethyl]-phenyl}-6-methyl-benzamide] | 5.41 |
| COc1cc2c(cc1OC)CN(CCc1ccc(NC(=O)c3ccccc3NC(=O)c3ccccc3C(F)(F)F)cc1)CC2 [compound 9523, 2-(2-Trifluoromethyl-benzoylamino)-N-{4-[2-(6,7-dimethoxy-3,4-dihydro-1H-isoquinolin-2-yl)-ethyl]-phenyl}-benzamide] | 5.80 |
| COc1cc2c(cc1OC)CN(CCc1ccc(NC(=O)c3ccccc3NC(=O)c3cnc4ccccc4c3O)cc1)CC2 [compound 9606, 4-Hydroxy-quinoline-3-carboxylic acid (2-{4-[2-(6,7-dimethoxy-3,4-dihydro-1H-isoquinolin-2-yl)-ethyl]-phenylcarbamoyl}-phenyl)-amide] | < 5.00 |
| CCCCOc1cc(CN(C)CCc2ccc(NC(=O)c3cc(OC)c(OC)cc3NC(=O)c3cnc4ccccc4c3)cc2)ccc1OC [compound 9656, Quinoline-3-carboxylic acid [2-(4-{2-[(3-butoxy-4-methoxy-benzyl)-methyl-amino]-ethyl}-phenylcarbamoyl)-4,5-dimethoxy-phenyl]-amide] | 6.73 |
| COc1cc2c(cc1OC)CN(CCc1ccc(NC(=O)c3ccccc3NC(=O)c3cc4ccccc4[nH]3)cc1)CC2 [compound 9515, 1H-Indole-2-carboxylic acid (2-{4-[2-(6,7-dimethoxy-3,4-dihydro-1H-isoquinolin-2-yl)-ethyl}-phenylcarbamoyl}-phenyl)-amide] | 5.92 |
| COc1cc2c(cc1OC)CN(CCNC(=O)c1cccc(Cl)c1NC(=O)c1ccc(C(C)C)cc1)CC2 [compound 9401, 2-(4-Isopropyl-benzoylamino)-N-[2-(6,7-dimethoxy-3,dihydro-1H-isoquinolin-2-yl)-ethyl]-3-chioro-benzamide] | 5.52 |
| COc1cc2c(cc1OC)CN(CCNC(=O)c1ccc(Cl)cc1NC(=O)c1ccc(C(C)C)cc1)CC2 [compound 9350, 2-(4-Isopropyl-benzoylamino)-N-[2-(6,7-dimethoxy-3,4-dihydro-1H-isoquinolin-2-yl)-ethyl]-4-chioro-benzamide] | 6.10 |
| COc1cc2c(cc1OC)CN(CCc1ccc(NC(=O)c3ccccc3NC(=O)c3cc4ccccc4nc3Cl)cc1)CC2 [compound 9591, 2-Chloro-quinoline-3-carboxylic acid (2-{4-[2-(6,7-dimethoxy-3,4-dihydro-1H-isoquinolin-2-yl)-ethyl]-phenylcarbamoyl}-phenyl)-amide] | 6.37 |
| COc1cc2c(cc1OC)CN(CCc1ccc(NC(=O)c3ccccc3NC(=O)c3cnc4cc(C(F)(F)F)ccc4c3O)cc1)CC2 [compound 9592, 4-Hydroxy-7-trifluoromethyl-quinoline-3-carboxylic acid (2-{4-[2-(6,7-dimethoxy-3,4-dihydro-1H-isoquinolin-2-yl)-ethyl]-phenylcarbamoyl}-phenyl)-amide] | < 5.00 |
| COc1cc2c(cc1OC)CN(CCNC(=O)c1cc3ccccc3cc1NC(=O)c1ccc(C(C)C)cc1)CC2 [compound 9410, 3-(4-Isopropyl-benzoylamino)-naphthalene-2-carboxylic acid [2-(6,7-dimethoxy-3,4-dihydro-1H-isoquinolin-2-yl)-ethyl]-amide] | 5.52 |
| COc1cc2c(cc1OC)CN(CCc1ccc(NC(=O)c3ccccc3NC(=O)c3cccc(C(F)(F)F)c3)cc1)CC2 [compound 9524] | 6.00 |

From US6218393A, “Anthranilic acid derivatives as multi drug resistance modulators” (priority 1997, dated 2001)
